Experimental data as given in ChEMBL document CHEMBL1165979, “Peptide fragmentation as an approach in modeling of an active peptide and designing a competitive inhibitory peptide for HMG-CoA reductase” (Bioorg Med Chem, 2010).
pIC50, pKi: −log10 of the molar value. Non-standard residues stand in square brackets, D forms with d. Residues, ends and D or L forms follow the SMILES beside them. Phe(4-F) = N[C@@H](Cc1ccc(F)cc1)C(=O)O

Each molecule was assayed against T1, 3-hydroxy-3-methylglutaryl-coenzyme A reductase (Homo sapiens, UniProt P04035) (assay: Inhibition of HMG-CoA reductase by spectrophotometry). Conditions: not given; call rule not given here.
T1 sequence (P04035 whole entry): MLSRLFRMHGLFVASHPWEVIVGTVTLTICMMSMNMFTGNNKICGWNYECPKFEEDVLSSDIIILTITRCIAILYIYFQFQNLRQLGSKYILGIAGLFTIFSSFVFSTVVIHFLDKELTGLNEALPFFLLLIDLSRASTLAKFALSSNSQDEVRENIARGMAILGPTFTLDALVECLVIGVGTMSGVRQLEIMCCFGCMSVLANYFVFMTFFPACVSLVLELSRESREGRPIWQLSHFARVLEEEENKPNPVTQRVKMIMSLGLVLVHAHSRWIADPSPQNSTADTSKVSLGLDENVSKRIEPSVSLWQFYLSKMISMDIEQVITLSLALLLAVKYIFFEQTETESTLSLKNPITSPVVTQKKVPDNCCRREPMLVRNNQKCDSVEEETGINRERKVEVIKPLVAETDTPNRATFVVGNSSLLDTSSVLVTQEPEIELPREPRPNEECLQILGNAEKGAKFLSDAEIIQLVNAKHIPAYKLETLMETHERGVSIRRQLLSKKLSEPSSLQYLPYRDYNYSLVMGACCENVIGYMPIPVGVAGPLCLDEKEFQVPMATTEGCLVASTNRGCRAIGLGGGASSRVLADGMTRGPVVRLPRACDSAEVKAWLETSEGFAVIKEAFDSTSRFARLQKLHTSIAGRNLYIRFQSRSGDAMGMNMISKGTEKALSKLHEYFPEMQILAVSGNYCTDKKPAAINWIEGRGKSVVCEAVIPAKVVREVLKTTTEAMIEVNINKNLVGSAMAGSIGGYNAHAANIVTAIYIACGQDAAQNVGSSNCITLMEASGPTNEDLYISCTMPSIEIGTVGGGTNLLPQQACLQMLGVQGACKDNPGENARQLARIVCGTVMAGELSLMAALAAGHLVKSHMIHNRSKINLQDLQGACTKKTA

IC50	Molecule
Not Active	NCC(=O)N[C@@H](Cc1ccc(F)cc1)C(=O)N1CCC[C@H]1C(=O)NCC(=O)NCC(=O)NCC(=O)O (H-G[Phe(4-F)]PGGG-OH)
Not Active	H-DFGYVAG-OH

Same assay, conditions: read-out: IC50

pIC50	Molecule
4.77	H-GFPTGG-OH
4.56	H-GLPEGG-OH
5.16	NCC(=O)N[C@@H](Cc1ccc(F)cc1)C(=O)N1CCC[C@H]1C(=O)N[C@@H](CC(=O)O)C(=O)NCC(=O)NCC(=O)O (H-G[Phe(4-F)]PDGG-OH)
5.07	CC(C)[C@H](NC(=O)[C@H](Cc1ccc(F)cc1)NC(=O)CNC(=O)[C@@H](N)Cc1ccccc1)C(=O)N[C@@H](C)C(=O)N[C@@H](CCC(=O)O)C(=O)O (H-FG[Phe(4-F)]VAE-OH)
3.31	CC(C)C[C@H](N)C(=O)N1CCC[C@H]1C(=O)N[C@@H](Cc1ccc(O)cc1)C(=O)N1CCC[C@H]1C(=O)O (H-LPYP-OH)
4.12	CC[C@H](C)[C@H](N)C(=O)N[C@@H](C)C(=O)N[C@H](C(=O)N[C@@H](CCC(=O)O)C(=O)O)C(C)C (H-IAVE-OH)
3.70	H-IAVPGEVA-OH
4.28	CC[C@H](C)[C@H](N)C(=O)N[C@H](C(=O)N[C@@H](C)C(=O)N[C@@H](CCC(=O)O)C(=O)O)C(C)C (H-IVAE-OH)
3.82	H-IAVPTGVA-OH
6.80	H-DFGYVAE-OH
5.83	H-FPYVAE-OH
4.71	H-GLPTGG-OH
4.65	H-GLPDGG-OH
5.32	C[C@@H](O)[C@H](NC(=O)[C@@H]1CCCN1C(=O)[C@H](Cc1ccc(F)cc1)NC(=O)CN)C(=O)NCC(=O)NCC(=O)O (H-G[Phe(4-F)]PTGG-OH)
5.59	H-FFYVAE-OH
5.42	CC(C)[C@H](NC(=O)[C@@H](N)Cc1ccc(F)cc1)C(=O)N[C@@H](C)C(=O)N[C@@H](CCC(=O)O)C(=O)O (H-[Phe(4-F)]VAE-OH)
6.12	NCC(=O)N[C@@H](Cc1ccc(F)cc1)C(=O)N1CCC[C@H]1C(=O)N[C@@H](CCC(=O)O)C(=O)NCC(=O)NCC(=O)O (H-G[Phe(4-F)]PEGG-OH)
5.82	H-GFPDGG-OH
6.62	H-EFGYVAE-OH
6.59	H-TFGYVAE-OH
6.57	H-GFGYVAE-OH
5.75	H-GFPEGG-OH
6.39	H-FGYVAE-OH

Molecule	pIC50
CC(C)[C@H](NC(=O)[C@@H](N)Cc1ccc(O)cc1)C(=O)N[C@@H](C)C(=O)N[C@@H](CCC(=O)O)C(=O)O (H-YVAE-OH)	4.38
CC(C)[C@H](NC(=O)[C@H](C)NC(=O)[C@@H](N)Cc1ccc(O)cc1)C(=O)N[C@@H](CCC(=O)O)C(=O)O (H-YAVE-OH)	4.35

Each molecule was assayed against T1, 3-hydroxy-3-methylglutaryl-coenzyme A reductase (assay: Competitive inhibition of HMG-CoA reductase by Dixon plot analysis). Conditions: not given.

pKi	Molecule
7.29	H-DFGYVAE-OH
6.59	C[C@@H](O)[C@H](NC(=O)[C@@H]1CCCN1C(=O)[C@H](Cc1ccc(F)cc1)NC(=O)CN)C(=O)NCC(=O)NCC(=O)O (H-G[Phe(4-F)]PTGG-OH)
